The values below come from patent publication US20240216354A1, “IMMUNOMODULATORY IMIDE DRUGS AS ZETA-CHAIN-ASSOCIATED PROTEIN KINASE 70 (ZAP70) AGONISTS AND USES THEREOF” (Dana-Farber Cancer Institute, Inc., priority 2019, published 2024).

The structures appear in SMILES notation.

Experiment [1] deals with T1, Zap-70 (Homo sapiens, UniProt P43403).
T1 sequence (P43403 1-619): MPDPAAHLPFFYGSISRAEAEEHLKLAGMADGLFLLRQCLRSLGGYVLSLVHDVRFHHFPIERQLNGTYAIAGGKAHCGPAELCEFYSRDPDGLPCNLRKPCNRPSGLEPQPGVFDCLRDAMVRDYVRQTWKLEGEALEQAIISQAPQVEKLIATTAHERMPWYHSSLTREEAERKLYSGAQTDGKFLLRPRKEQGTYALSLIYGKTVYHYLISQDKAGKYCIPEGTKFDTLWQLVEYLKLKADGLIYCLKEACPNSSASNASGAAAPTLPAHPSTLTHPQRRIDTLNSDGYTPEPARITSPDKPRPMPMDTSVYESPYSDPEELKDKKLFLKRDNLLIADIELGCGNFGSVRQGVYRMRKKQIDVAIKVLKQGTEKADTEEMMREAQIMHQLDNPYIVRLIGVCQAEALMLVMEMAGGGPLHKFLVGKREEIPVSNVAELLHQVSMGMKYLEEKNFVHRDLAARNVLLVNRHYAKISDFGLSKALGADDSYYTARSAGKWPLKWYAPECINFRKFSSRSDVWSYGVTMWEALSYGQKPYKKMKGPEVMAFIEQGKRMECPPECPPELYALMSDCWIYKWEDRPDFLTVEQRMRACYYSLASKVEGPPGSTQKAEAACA
The experiment can be described thus: PathScan Phospho-Zap-70 (Tyr319) Sandwich ELISA in Jurkat cells. It is filed as cell-based. The settings on record: lenalidomide (1 and 3 μM) or pomalidomide (1 and 3 μM), 4 h and 8 h, Len<Pom. The protocol:
(§1) (A) Jurkat cells were transfected with scrambled (Sc) siRNA or Zap-70 siRNA. Whole cell lysates were subjected to immunoblotting using indicated Abs. (B) Jurkat cells were treated with lenalidomide ([…]) or pomalidomide (1 and 3 μM) for 4 h and 8 h. Whole cell lysates were subjected to p-Zap ELISA assay. (C) Jurkat whole cell lysates were incubated with pomalidomide-beads in the presence or absence of competitor (1 mM free pomalidomide) for 1 h. After elution, samples were subjected to immunoblotting using anti-Zap-70 Ab. (D) Saturation-transfer difference resulting from the binding of pomalidomide to Zap-70. Pomalidomide is at 320 μM and Zap-70 is approximately 2 μM in deuterated PBS solution. […] (E) Saturation-transfer difference resulting from the binding of pomalidomide to Zap-70 in the presence of 2.56 mMATP. Pomalidomide is at 320 μM and Zap-70 is approximately 2 μM in deuterated PBS solution. […] Note that both ATP and pomalidomide show binding the Zap-70. (F) Non-cell based Zap-70 kinase assay was carried out, according to manufacturer's protocol.
Phosphorylation of Zap-70 was evaluated using PathScan Phospho-Zap-70 (Tyr319) Sandwich ELISA Kit (Cell Signaling Technology), according to manufacturer's protocol.
(In general: In an ELISA, binding on a coated surface is turned into a signal by an enzyme label.)

Experiment [2] concerns the target T1, Zap-70. The experiment can be described thus: Immunoblotting of p-Zap-70 in KHYG-1 NK cell line. It is filed as cell-based. The following applies: KHYG-1 cells, pomalidomide 0.25-1 μM, 24 h. The protocol:
(§2) KHYG-1 cells were cultured with pomalidomide (0.25-1 μM) for 24 h. (A) Whole cell lysates were subjected to immunoblotting using indicated Abs. (B) KHYG-1 cells were incubated with calcein-AM-stained U266 cells for 4 h at the indicated effector/target (E/T) ratios. Percent specific lysis was calculated as described previously. (C) KHYG-1 cells were transfected with Scsi or Zap-70si, and then cultured with pomalidomide (0.25 μM) for 72 h in the absence of IL-2. Viable cell number was determined, and cells were then incubated with calcein AM-labeled U266 target cells for 4 h at indicated effector/target (E/T) ratios. Percent specific lysis was calculated as described previously. (D) After transfection with Scsi or Zap-70si, cells were cultured with lenalidomide or pomalidomide for 72 h. Cell growth was assessed by MTT assay. (E) KHYG-1 cells were transfected with scrambled (Scsi) or CRBNsi. The transfectants were then cultured with pomalidomide (0.5 μM) for 24 h, and whole cell lysates were subjected to immunoblotting using indicated Abs. The arrow indicates CRBN expression. (F) Primary NK cells (#1, #2, #3, #4) were isolated from healthy volunteer's PBMCs, as described in Materials and Methods. NK cells were cultured with pomalidomide (0.5 μM) for 24 h, and whole cell lysates were subjected to immunoblotting using indicated Abs. […] Percent specific lysis was calculated as previously described.
Background: In western blotting, separated proteins are transferred to a membrane and probed.

The next experiment concerns U266 cells. Nature of the experiment: Primary NK cell cytolytic activity against calcein AM-labeled U266. It is filed as cell-based, human. The settings on record: primary NK cells #1, #2, pomalidomide 0.25-1 μM 24 h, E/T 5/1 and 10/1. The protocol:
as §2

Experiment [3] has as its target T1, Zap-70. The experiment can be described thus: Saturation-transfer difference (STD) NMR binding to recombinant Zap-70. The following applies: Pom 320 μM, Len 2.56 mM, ATP 2.56 mM, Zap-70 approximately 2 μM, deuterated PBS. More on the design: purchased Origene, Rockville, MD. The protocol:
as §1
(A) Saturation-transfer difference resulting from the binding of lenalidomide to Zap-70, with lenalidomide (2.56 mM) and Zap-70 (2 μM) in deuterated PBS solution. […] (B) Saturation-transfer difference resulting from the binding of lenalidomide to Zap70 in the presence of 2.56 mM ATP, with lenalidomide (2.56 mM) and Zap-70 (2 μM) in deuterated PBS solution.
Commercial recombinant Zap-70 (Origene, Rockville, MD) was prepared by gel filtration buffer exchange into deuterated phosphate-buffered saline (PBS), which removed any components of the protein storage buffer, including glycerol. Len and Pom were made as d6-DMSO stock solutions and frozen in aliquots prior to use. ATP was stored frozen in aliquots at −20° C. in deuterated PBS. NMR samples were prepared in 5 mm SampleJet tubes to a final volume of 500 μl by adding 5-20 μl of the appropriate IMiD stock solution to the buffer-exchanged protein. The final concentration of protein in the NMR samples was approximately 2 μM. […]

As to `Nc1cccc2c1C(=O)N(C1CCC(=O)NC1=O)C2=O` (stereo not shown) [pomalidomide], the “p-Zap-70 (Tyr319) by ELISA” value on Zap-70 [1] is recorded as “increased p-Zap-70 (Tyr319) in a dose-dependent fashion”. In addition, the “p-Zap-70 (immunoblotting)” value at Zap-70 [2] is reported as “similarly enhanced p-Zap-70 in KHYG-1 cells”. The “NK cytolytic activity against U266 cells” value in the experiment on U266 cells is “significantly enhanced their NK cytolytic activity against U266 cells”. In addition, the “direct binding to Zap-70 (STD NMR)” value at Zap-70 [3] is reported as “directly binds to Zap-70”.
